The target of data set [1] is T1, Histone-arginine methyltransferase CARM1 (Homo sapiens, UniProt Q86X55).
T1 sequence (Q86X55 whole entry): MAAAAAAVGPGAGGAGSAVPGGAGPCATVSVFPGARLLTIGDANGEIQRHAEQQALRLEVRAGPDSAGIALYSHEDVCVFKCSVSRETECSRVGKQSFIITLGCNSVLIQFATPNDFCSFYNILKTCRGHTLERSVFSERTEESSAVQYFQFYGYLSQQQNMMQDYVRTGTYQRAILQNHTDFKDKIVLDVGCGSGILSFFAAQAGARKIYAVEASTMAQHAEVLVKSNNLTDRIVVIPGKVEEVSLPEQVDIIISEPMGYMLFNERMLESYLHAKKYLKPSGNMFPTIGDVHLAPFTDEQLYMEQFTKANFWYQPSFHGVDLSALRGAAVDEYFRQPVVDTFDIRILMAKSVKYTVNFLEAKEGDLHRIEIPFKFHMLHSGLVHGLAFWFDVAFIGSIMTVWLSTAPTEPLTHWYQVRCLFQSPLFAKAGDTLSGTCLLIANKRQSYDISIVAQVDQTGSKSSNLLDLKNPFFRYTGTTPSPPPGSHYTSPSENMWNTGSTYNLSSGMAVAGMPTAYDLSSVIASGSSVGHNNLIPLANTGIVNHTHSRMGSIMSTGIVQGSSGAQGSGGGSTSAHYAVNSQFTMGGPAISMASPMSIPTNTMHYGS
The data set can be described thus: Inhibition of CARM1 (unknown origin).

For data set [2], the target named is Protein arginine N-methyltransferase 1 (Homo sapiens, UniProt Q99873). The data set can be described thus: Inhibition of PRMT1 (unknown origin) by AlphaLISA assay. In general terms: Alpha assays give light when donor and acceptor beads are brought close together.
Chain of Protein arginine N-methyltransferase 1 (Q99873 whole entry, the tested form may be a part): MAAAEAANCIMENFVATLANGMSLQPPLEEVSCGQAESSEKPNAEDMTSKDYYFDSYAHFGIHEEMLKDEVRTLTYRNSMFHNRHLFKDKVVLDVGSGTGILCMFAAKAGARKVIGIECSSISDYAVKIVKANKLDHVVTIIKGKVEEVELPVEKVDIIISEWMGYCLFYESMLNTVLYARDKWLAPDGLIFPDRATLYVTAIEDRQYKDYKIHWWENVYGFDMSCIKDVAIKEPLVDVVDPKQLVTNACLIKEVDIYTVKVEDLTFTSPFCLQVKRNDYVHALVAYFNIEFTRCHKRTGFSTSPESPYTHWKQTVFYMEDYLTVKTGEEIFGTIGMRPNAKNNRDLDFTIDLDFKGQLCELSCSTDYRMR
Data set [3] deals with T1, Histone-arginine methyltransferase CARM1. The data set can be described thus: Inhibition of CARM1 (unknown origin) using histone H3 (21 to 44 residues) and SAM as substrates by AlphaLISA assay.
Data set [4] has as its system HCT-116. The data set can be described thus: Antiproliferative activity against human HCT-116 cells assessed as inhibition of cell growth by CCK-8 assay. Format: functional, cell-based.
The test system of data set [5] is HCT-116. Kind of data set: Potency index, ratio of GSK3368715 IC50 to test compound IC50 for antiproliferative activity against human HCT-116 cells assessed as inhibition of cell growth by CCK-8 assay. Format: functional.
Data set [6] concerns the target T2, Protein arginine N-methyltransferase 6 (Homo sapiens, UniProt Q96LA8). The data set can be described thus: Inhibition of PRMT6 (unknown origin) by AlphaLISA assay.
In data set [7] the target is T3, Protein arginine N-methyltransferase 8 (Homo sapiens, UniProt Q9NR22). The data set can be described thus: Inhibition of PRMT8 (unknown origin) by AlphaLISA assay.
T3 sequence (Q9NR22 whole entry): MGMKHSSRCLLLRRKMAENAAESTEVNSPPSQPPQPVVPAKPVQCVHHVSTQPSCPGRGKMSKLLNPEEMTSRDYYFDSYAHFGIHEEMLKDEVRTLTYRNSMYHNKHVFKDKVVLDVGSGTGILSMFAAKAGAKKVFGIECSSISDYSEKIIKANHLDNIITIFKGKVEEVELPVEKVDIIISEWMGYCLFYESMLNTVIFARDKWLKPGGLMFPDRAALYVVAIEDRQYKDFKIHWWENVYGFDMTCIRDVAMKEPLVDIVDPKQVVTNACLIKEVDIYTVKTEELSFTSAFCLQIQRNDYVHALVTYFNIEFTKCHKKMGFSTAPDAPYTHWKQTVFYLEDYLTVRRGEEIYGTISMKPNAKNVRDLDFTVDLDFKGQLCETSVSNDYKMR
Data set [8] addresses Protein arginine N-methyltransferase 3 (Homo sapiens, UniProt O60678). Kind of data set: Inhibition of PRMT3 (unknown origin) by AlphaLISA assay.
In data set [9] the target is Protein arginine N-methyltransferase 5 (Homo sapiens, UniProt O14744). The data set can be described thus: Inhibition of PRMT5 (unknown origin) by AlphaLISA assay.
Chain of Protein arginine N-methyltransferase 5 (O14744 whole entry): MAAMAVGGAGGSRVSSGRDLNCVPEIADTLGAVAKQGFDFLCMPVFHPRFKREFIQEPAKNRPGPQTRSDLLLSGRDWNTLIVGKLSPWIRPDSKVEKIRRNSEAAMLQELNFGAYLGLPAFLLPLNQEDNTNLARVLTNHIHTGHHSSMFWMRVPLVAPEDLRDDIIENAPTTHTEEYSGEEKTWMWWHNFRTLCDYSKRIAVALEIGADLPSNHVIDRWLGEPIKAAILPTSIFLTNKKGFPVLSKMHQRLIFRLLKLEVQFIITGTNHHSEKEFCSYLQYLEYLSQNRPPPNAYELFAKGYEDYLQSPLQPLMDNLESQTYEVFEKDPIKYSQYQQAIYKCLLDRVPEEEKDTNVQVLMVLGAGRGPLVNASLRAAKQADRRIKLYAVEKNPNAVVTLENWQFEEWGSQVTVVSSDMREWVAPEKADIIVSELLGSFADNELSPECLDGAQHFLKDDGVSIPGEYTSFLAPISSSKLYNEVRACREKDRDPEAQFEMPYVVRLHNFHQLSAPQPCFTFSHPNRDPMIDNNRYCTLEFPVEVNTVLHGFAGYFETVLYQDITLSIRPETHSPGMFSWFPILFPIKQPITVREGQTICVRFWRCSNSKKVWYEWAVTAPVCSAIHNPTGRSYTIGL
Data set [10] is described as follows: in vitro. The settings on record: mouse, liver microsomes. A general note: Liver microsomes are a subcellular fraction often used to study metabolism.
Description: Metabolic stability in mouse liver microsomes assessed as half life by LC-MS/MS analysis
Data set [11] in a line: in vitro. Particulars: mouse, liver microsomes. This is another data set of the same source.
Description: Metabolic stability in mouse liver microsomes assessed as microsomal intrinsic clearance by LC-MS/MS analysis
A short description of data set [12]: in vitro. Particulars: mouse, liver microsomes. This is another data set of the same source.
Description: Metabolic stability in mouse liver microsomes assessed as intrinsic clearance by LC-MS/MS analysis
The target of data set [13] is T1, Histone-arginine methyltransferase CARM1. The data set can be described thus: Inhibition of N-terminal FLAG tagged human PRMT4 (2 to end residues) expressed in FreeStyle 293-F cells using SAM and rHistone H3.1 as substrate preincubated for 60 mins followed by substrate addition and measured after 40 mins by Topcount reader based analysis.
Data set [14] has as its target T2, Protein arginine N-methyltransferase 6. Kind of data set: Inhibition of N-terminal His tagged human recombinant PRMT6 (2 to 375 residues) expressed in Escherichia coli using SAM and Histone (1 to 21 residues) as substrate preincubated for 60 mins followed by substrate addition and measured after 40 mins by Topcount reader based analysis.
Data set [15] addresses T3, Protein arginine N-methyltransferase 8. The data set can be described thus: Inhibition of PRMT8 (unknown origin) using SAM and Histone (1 to 21 residues) as substrate preincubated for 60 mins followed by substrate addition and measured after 40 mins by Topcount reader based analysis.
In data set [16] the test system is HCT-116. The data set can be described thus: Induction of apoptosis in human HCT-116 cells assessed as late apoptotic cells at 0.63 uM measured after 72 hrs by Annexin V-FITC/PI staining based flow cytometry analysis (reference value: 1.53%). Format: functional.
Data set [17] concerns HCT-116. Kind of data set: Induction of apoptosis in human HCT-116 cells assessed as dead cells at 0.63 uM measured after 72 hrs by Annexin V-FITC/PI staining based flow cytometry analysis (reference value: 1.07%). The data set is classed as functional. Background: A flow cytometer gives signals particle by particle.
Data set [18] has as its system HCT-116. The data set can be described thus: Induction of apoptosis in human HCT-116 cells assessed as late apoptotic cells at 1.25 uM measured after 72 hrs by Annexin V-FITC/PI staining based flow cytometry analysis (reference value: 1.53%). Format: functional.
The test system of data set [19] is HCT-116. Kind of data set: Induction of apoptosis in human HCT-116 cells assessed as dead cells at 1.25 uM measured after 72 hrs by Annexin V-FITC/PI staining based flow cytometry analysis (reference value: 1.07%). The data set is classed as functional.
Data set [20] has as its system HCT-116. Kind of data set: Induction of apoptosis in human HCT-116 cells assessed as late apoptotic cells at 2.5 uM measured after 72 hrs by Annexin V-FITC/PI staining based flow cytometry analysis (reference value: 1.53%). The data set is classed as functional.
For data set [21], the system named is HCT-116. The data set can be described thus: Induction of apoptosis in human HCT-116 cells assessed as dead cells at 2.5 uM measured after 72 hrs by Annexin V-FITC/PI staining based flow cytometry analysis (reference value: 1.07%). Format: functional.
In data set [22] the test system is HCT-116. Kind of data set: Induction of apoptosis in human HCT-116 cells assessed as late apoptotic cells at 5 uM measured after 72 hrs by Annexin V-FITC/PI staining based flow cytometry analysis (reference value: 1.53%). The data set is classed as functional.
Data set [23] has as its system HCT-116. Kind of data set: Induction of apoptosis in human HCT-116 cells assessed as dead cells at 5 uM measured after 72 hrs by Annexin V-FITC/PI staining based flow cytometry analysis (reference value: 1.07%). The data set is classed as functional.

Where only a bound is given, the exact number is not on record here.

From ChEMBL document CHEMBL5506007, “Structure-based discovery of potent CARM1 inhibitors for colorectal cancer therapy” (Eur J Med Chem, 2024) come the findings set out here.

T2 sequence (Q96LA8 whole entry): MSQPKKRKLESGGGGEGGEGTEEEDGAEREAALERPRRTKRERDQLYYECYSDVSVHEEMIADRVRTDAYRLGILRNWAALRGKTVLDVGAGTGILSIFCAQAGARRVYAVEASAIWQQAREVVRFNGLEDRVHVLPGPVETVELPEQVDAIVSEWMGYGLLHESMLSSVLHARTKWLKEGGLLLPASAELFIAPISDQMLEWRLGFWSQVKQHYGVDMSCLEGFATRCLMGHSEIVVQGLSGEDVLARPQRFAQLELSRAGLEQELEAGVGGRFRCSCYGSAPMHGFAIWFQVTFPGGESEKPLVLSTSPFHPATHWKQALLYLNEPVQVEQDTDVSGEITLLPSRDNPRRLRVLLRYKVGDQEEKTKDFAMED
Chain of Protein arginine N-methyltransferase 3 (O60678 whole entry): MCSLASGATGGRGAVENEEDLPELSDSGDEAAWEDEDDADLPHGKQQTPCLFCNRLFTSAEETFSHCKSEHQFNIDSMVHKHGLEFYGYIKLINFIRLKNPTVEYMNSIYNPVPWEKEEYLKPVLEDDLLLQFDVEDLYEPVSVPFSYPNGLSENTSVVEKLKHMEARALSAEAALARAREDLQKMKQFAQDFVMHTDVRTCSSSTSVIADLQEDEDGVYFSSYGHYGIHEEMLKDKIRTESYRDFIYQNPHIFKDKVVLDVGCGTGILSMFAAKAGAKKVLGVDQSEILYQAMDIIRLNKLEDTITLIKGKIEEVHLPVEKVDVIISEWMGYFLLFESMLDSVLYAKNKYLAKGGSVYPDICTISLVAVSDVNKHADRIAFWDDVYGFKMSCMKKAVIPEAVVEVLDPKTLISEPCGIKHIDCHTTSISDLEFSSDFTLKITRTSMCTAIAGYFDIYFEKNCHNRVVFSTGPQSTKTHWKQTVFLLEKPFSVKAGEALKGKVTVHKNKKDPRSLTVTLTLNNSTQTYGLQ

`CNCCN1CCC(c2ccc3c(F)c(-c4ccccc4OC)[nH]c3c2)CC1`: inhibition in data set [1] was half-maximal at 0.03 µM (IC50).

For the compound `CNCCN(C)Cc1ccccc1OC1CCC(COC)(COC)CC1.Cl.Cl`, the IC50 (usually the concentration needed to halve the response being measured) turned out to be 0.056 µM in [2]; 0.007 µM in data set [3]; 2.96 µM in the data set on HCT-116 [4]; 0.012 µM in [6]; 0.024 µM in data set [7]; 0.493 µM in data set [8]. In data set [9], the IC50 is above 100 µM. Also, the “Ratio IC50” value in the data set with HCT-116 [5] is recorded as above 10. In the data set “in vitro [10]”, the half-life (commonly how long it takes for the measured level to halve) stood at 0.76 h. Besides, the microsomal CLint – broadly, a measure of how fast metabolising enzymes remove a compound, apart from limits set by blood flow – in “in vitro [11]” was 30.4 µL/min/mg. Moreover, in the data set “in vitro [12]”, the CLint scaled (commonly the capacity of the preparation to metabolise the compound, expressed as a volume cleared per time) was 7.2 L/h/kg.

Turning to `CCOCC1(COCC)CCC(c2n[nH]cc2CN(C)CCNC)CC1`, the IC50 worked out at 0.012 µM in [3]; 38.2 µM in the data set on HCT-116 [4]; 0.0017 µM in [13]; 0.0017 µM in data set [14]; 0.0017 µM in [15].

Take `CCOCC1(COCC)CCC(Oc2ccccc2CN(C)C[C@H](O)CNC)CC1`: the figures for the IC50 in data set [2] and in data set [3] were 0.281 µM and 0.037 µM, respectively.

For the compound `CCOCC1(COCC)CCC(Oc2ccccc2CN(C)C[C@@H](O)CNC)CC1`, the IC50 came out at 0.056 µM in data set [2]; 0.009 µM in data set [3]; 3.13 µM in the data set with HCT-116 [4]; 0.01 µM in data set [6]; 0.031 µM in [7]; 2.64 µM in [8]. The IC50 in data set [9] is above 100 µM. In addition, the “Ratio IC50” value with HCT-116 [5] was above 10. In addition, the Activity is recorded as 0.87% with HCT-116 [16]; 1.32% in the data set with HCT-116 [17]; 1.09% with HCT-116 [18]; 1.83% in the data set on HCT-116 [19]; 2.13% in the data set with HCT-116 [20]; 1.52% with HCT-116 [21]. Further, the Activity with HCT-116 [22] was 1.3%; in the data set on HCT-116 [23], 2.14%. In addition, the half-life in the data set “in vitro [10]” was determined as 3.62 h. In the data set “in vitro [11]”, the microsomal CLint stood at 6.4 µL/min/mg. In “in vitro [12]”, the CLint scaled was determined as 1.52 L/h/kg.
